From PubChem BioAssay (NCI) come the findings set out here.

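Where inhibition never reached the appropriate level, the endpoint shown equals the highest concentration tested. Otherwise, values were interpolated linearly from a five-concentration, 48-hour dose response in 96-well plates. The concentration for full growth arrest is given as TGI.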

Test systems include SK-MEL-2 melanoma; UO-31 renal; HOP-92 NSCLC; NCI/ADR-RES ovarian; RXF 393 renal; K-562 leukemia; HCT-15 colon; HT29 colon; OVCAR-3 ovarian; U251 CNS; OVCAR-8 ovarian; SR leukemia; COLO 205 colon.
Common to all, as to test: NCI tumour cell line growth inhibition, 48 h

As to `N=C(N)c1ccc(/C=C/c2ccc(C(=N)N)cc2)cc1`, the TGI in the experiment on SK-MEL-2 melanoma was 87.3 µM; in the experiment on UO-31 renal, over 100 µM; in the experiment on HOP-92 NSCLC, over 100 µM; in the experiment on NCI/ADR-RES ovarian, over 100 µM; with RXF 393 renal, over 100 µM; with K-562 leukemia, over 100 µM. The TGI in the experiment with HCT-15 colon, in the experiment with HT29 colon, with OVCAR-3 ovarian, with U251 CNS, in the experiment on OVCAR-8 ovarian and in the experiment on SR leukemia was over 100 µM each time.
On to `O=C1OCN(c2ccccc2)C12CCN(Cc1ccccc1)CC2`, for which the TGI with SK-MEL-2 melanoma is 48.4 µM; in the experiment on UO-31 renal, over 100 µM; in the experiment on HOP-92 NSCLC, over 100 µM; in the experiment on NCI/ADR-RES ovarian, over 100 µM; in the experiment with COLO 205 colon, 39.6 µM; in the experiment with RXF 393 renal, 33.2 µM. Moreover, the TGI was 24.1 µM in the experiment with K-562 leukemia; 94.6 µM in the experiment with HCT-15 colon; 31.9 µM with HT29 colon; 31.5 µM with U251 CNS; over 100 µM with OVCAR-8 ovarian; over 100 µM in the experiment with SR leukemia.
Consider `O=C(OCc1ccccc1)N(CCCCN(CCCNC(=O)C(F)(F)F)C(=O)OCc1ccccc1)CCCNC(=O)C(F)(F)F`, for which the TGI in the experiment on SK-MEL-2 melanoma, with UO-31 renal, in the experiment on HOP-92 NSCLC, with NCI/ADR-RES ovarian, in the experiment on COLO 205 colon and with RXF 393 renal was over 100 µM each time. For the same compound, the TGI in the experiment on K-562 leukemia, in the experiment with HCT-15 colon, with HT29 colon, in the experiment on OVCAR-3 ovarian, in the experiment with U251 CNS and with OVCAR-8 ovarian was over 100 µM throughout. The compound also registered a TGI in the experiment with SR leukemia of over 100 µM.
For the compound `C=Cc1nc2c(Cl)ncnc2n1Cc1ccccc1`, the TGI in the experiment with SK-MEL-2 melanoma is 26.3 µM; with UO-31 renal, 6.02 µM; in the experiment with HOP-92 NSCLC it was 4.66 µM; in the experiment with NCI/ADR-RES ovarian, 23.1 µM; in the experiment on COLO 205 colon, 3.08 µM; with RXF 393 renal, 7.84 µM. For the same compound, the TGI in the experiment with K-562 leukemia was over 40.1 µM; in the experiment on HCT-15 colon, 8.05 µM; with HT29 colon, 7.28 µM; in the experiment with OVCAR-3 ovarian, 7.95 µM; with U251 CNS, 22.6 µM; with OVCAR-8 ovarian, 12 µM. In addition, the TGI with SR leukemia was over 33.4 µM.
Consider `CN(C)CCCN1c2ccc([N+](=O)[O-])cc2CCc2cccc([N+](=O)[O-])c21`, for which the TGI turned out to be 33.5 µM with SK-MEL-2 melanoma; 26.8 µM in the experiment on HOP-92 NSCLC; 30.4 µM with NCI/ADR-RES ovarian; 28.6 µM in the experiment on COLO 205 colon; 22.8 µM in the experiment with RXF 393 renal; 52 µM in the experiment with K-562 leukemia. For the same compound, the TGI in the experiment on HCT-15 colon is 30.5 µM; in the experiment on HT29 colon, 32.5 µM; in the experiment on OVCAR-3 ovarian, 28.8 µM; in the experiment with U251 CNS, 29.3 µM; in the experiment with OVCAR-8 ovarian it was 32.3 µM; in the experiment on SR leukemia it was over 100 µM.
In the case of `CCN(CC)c1ccc2cc(C(N)=O)c(=N)oc2c1`, the TGI with SK-MEL-2 melanoma was 54.1 µM; with HOP-92 NSCLC it was over 100 µM; in the experiment on NCI/ADR-RES ovarian, over 100 µM; with COLO 205 colon it was over 100 µM; in the experiment with RXF 393 renal, over 100 µM; with K-562 leukemia, over 100 µM. The TGI with HCT-15 colon, in the experiment on HT29 colon, in the experiment with OVCAR-3 ovarian, in the experiment with U251 CNS, with OVCAR-8 ovarian and with SR leukemia was over 100 µM throughout.
With `COc1ccc(N2CN3OC(=O)N(c4ccc(OC)cc4)[C@@]3(c3ccccc3)C2)cc1`, the TGI in the experiment on SK-MEL-2 melanoma is 45.1 µM; with UO-31 renal, over 100 µM; with HOP-92 NSCLC, over 100 µM; with NCI/ADR-RES ovarian it was 32 µM; in the experiment with COLO 205 colon, 80.1 µM; in the experiment on RXF 393 renal, 74.6 µM. In addition, the TGI is over 100 µM in the experiment with K-562 leukemia; over 100 µM in the experiment on HCT-15 colon; 50.6 µM in the experiment on HT29 colon; 48.9 µM in the experiment with OVCAR-3 ovarian; over 100 µM in the experiment on U251 CNS; over 100 µM in the experiment on OVCAR-8 ovarian. The compound also came in with a TGI with SR leukemia of 66.2 µM.
For the compound `Nc1ccccc1-c1noc(=O)[nH]1`, the TGI in the experiment on SK-MEL-2 melanoma, in the experiment with UO-31 renal, in the experiment with HOP-92 NSCLC, with NCI/ADR-RES ovarian, with COLO 205 colon and with RXF 393 renal was over 100 µM in each case. In addition, the TGI in the experiment with K-562 leukemia, with HCT-15 colon, in the experiment on HT29 colon, in the experiment on OVCAR-3 ovarian, in the experiment on U251 CNS and in the experiment with OVCAR-8 ovarian was over 100 µM each time. This compound registered a TGI in the experiment on SR leukemia of over 100 µM.
As for `O=C1C=Cc2c(Br)sc(Br)c21`, the TGI with SK-MEL-2 melanoma is 70.3 µM; in the experiment on UO-31 renal, 39.2 µM; in the experiment on HOP-92 NSCLC, 60 µM; in the experiment on NCI/ADR-RES ovarian, over 100 µM; in the experiment on COLO 205 colon it was over 100 µM; with RXF 393 renal, 46 µM. The TGI in the experiment with K-562 leukemia is 54.5 µM; in the experiment on HCT-15 colon, 90.4 µM; with HT29 colon, 85.9 µM; in the experiment with OVCAR-3 ovarian, 32.3 µM; in the experiment with U251 CNS, 38.2 µM; in the experiment on OVCAR-8 ovarian, over 100 µM. Moreover, the TGI in the experiment with SR leukemia worked out at 75.2 µM.
Turning to `Cc1ccc(S(=O)(=O)NC(=O)NC(CC(N)=O)C(=O)O)cc1` (stereo not given), the TGI with SK-MEL-2 melanoma, in the experiment with UO-31 renal, in the experiment on HOP-92 NSCLC, with NCI/ADR-RES ovarian, in the experiment on COLO 205 colon and in the experiment with RXF 393 renal was over 100 µM in each case. In addition, the TGI in the experiment on K-562 leukemia, with HCT-15 colon, in the experiment with HT29 colon, with U251 CNS, in the experiment on OVCAR-8 ovarian and in the experiment with SR leukemia was over 100 µM throughout.
